Laboratory results published in article PMC9667546, “Selective Inhibition of Bruton’s Tyrosine Kinase by a Designed Covalent Ligand Leads to Potent Therapeutic Efficacy in Blood Cancers Relative to Clinically Used Inhibitors” (ACS Pharmacology & Translational Science, 2022).
Values joined by “and” are separate entries in the source; they are usually repeats but may differ in a detail not shown here. Equal entries are not always repeated. Where two headings read alike, the source gives them in different places.

Legend:
[1] = molecular target: BLK (Homo sapiens, UniProt P51451); test: NanoBRET in-cell target engagement, BLK; assay type: binding; parameters: host or cells: HEK296T (so in the source)
Protocol: (§1) In-cell target engagement was performed at Reaction Biology Corporation, using NanoBRET technology. Very briefly, HEK296T cells were transfected and treated in duplicate with JS25 for 1 h of incubation. The compound was diluted 10 times with 3-fold dilution, starting at 1 μM. Curve fits were performed only when the % NanoBret signal at the highest concentration of compounds was less than 55%. The IC50 values were determined using GraphPad Prism 8 ([…]).

[2] = test system: HBEC-5i cells; test: Cell viability assay (CellTiter-Glo), HBEC-5i; assay type: cell-based; settings: Homo sapiens, 72 h, n = 3
Protocol: (§2) Cells were inoculated at a density of 5000 cells/well. Serially diluted compounds (starting at 50 μM) were added 24 h later. The assay was performed in triplicates. After 72 h of incubation, cellular viability was assessed by CellTiter-Glo (Promega) according to the manufacturer’s instructions. The values were normalized with the vehicle (DMSO), and the IC50 was calculated using GraphPad Prism 8.
(§3) Human cerebral microvascular endothelial cells (HBEC-5i) were cultured as a monolayer on attachment factor protein solution (AF)-coated T-flasks (Gibco), using DMEM/F12 medium (Gibco), supplemented with 10% FBS, 1% penicillin/streptomycin, and 40.0 μg/mL endothelial cell growth supplement (ECGS, Sigma), according to the manufacturer’s instructions. The capacity of the compounds to cross the brain–blood barrier (BBB) was evaluated using an in vitro HBEC-5i cell model, as previously described.[29] Samples from the apical and basolateral sides were collected, and fluorescence intensity was measured using a Varioskan LUX multimode microplate reader. The retention was considered the difference between the initial fluorescence of compounds (100%) and the aggregated apical and basolateral fluorescence.

[3] = molecular target: BTK (Homo sapiens, UniProt Q06187); parameters: purchased Promega Corporation V2941; settings: first value of 5.8/28 in Table S3; ref 23 (SI ref 20); read-out: IC50 (potency against BTK), earlier value of JS25; cited from earlier work
[4] = test system: JURKAT cells; test: Cell viability assay (CellTiter-Glo), JURKAT; assay type: cell-based; settings: Homo sapiens, 72 h, n = 3
Protocol: (§4) All cell lines were purchased from ATCC, except for DoHH-2 cells that were obtained from DSMZ. Cells were cultivated in complete DMEM supplemented with 10% (vol/vol) FBS (Gibco) and 1% of penicillin/streptomycin (Gibco). The cells were grown in a humidified atmosphere of 5% CO2 at 37°C, with the medium changed every other day.
as §2

[5] = test system: HL-60 cells (APML); test: Cell viability assay (CellTiter-Glo), HL-60; assay type: cell-based; settings: Homo sapiens, 72 h, n = 3
Protocol: as §4, §2

[6] = test system: Raji cells; test: Mice xenograft model of Burkitt’s lymphoma (subcutaneous Raji cells); assay type: in vivo; settings: for Metastasis volume, Brain, Average / Metastasis volume, Liver, Average / Metastasis volume, Lung, Average / Metastasis volume, Spinal, Average / Secondary tumour, Average: average of 5 animals, stereological analysis; for Metastasis volume, Brain, single animals / Metastasis volume, Liver, single animals / Metastasis volume, Lung, single animals / Metastasis volume, Spinal, single animals / Secondary tumour, single animals: individual animals #1 to #5 in order
Protocol: Female adult BALB/c/NSG mice were injected subcutaneously with 1 × 10^6 Raji cells, in a 1:1 solution of Matrigel Matrix (Corning) to create solid tumors. When tumors reached 180 mm^3 on average, mice were randomized into four groups (n = 6/group), and dosing began every 2 days. […] Tumor size and body weight were monitored periodically for 12 days. At the end of the experiment, mice necropsies were performed. Stereological analysis was conducted by the Histopathology Unit at Instituto Gulbenkian de Ciência and by the Comparative Pathology Unit at Instituto de Medicina Molecular João Lobo Antunes. Quantification of metastases and cell necrosis was performed in all groups (n = 5/group). Statistical analysis was conducted using one-way ANOVA. The Dunnet test was used to analyze the statistical significance between the treatment groups and the control.

[7] = test system: DoHH-2 cells (DLBCL); test: Cell viability assay (CellTiter-Glo), DoHH-2; assay type: cell-based; settings: Homo sapiens, 72 h, n = 3
Protocol: as §4, §2

[8] = test system: MOLM-13 cells (AML); test: Cell viability assay (CellTiter-Glo), MOLM-13; assay type: cell-based; settings: Homo sapiens, 72 h, n = 3
Protocol: as §4, §2

[9] = molecular target: T1, ITK (Homo sapiens, UniProt Q08881); test: NanoBRET in-cell target engagement, ITK; assay type: binding
T1 construct: host or cells: HEK296T (so in the source)
T1 sequence (Q08881 1-620): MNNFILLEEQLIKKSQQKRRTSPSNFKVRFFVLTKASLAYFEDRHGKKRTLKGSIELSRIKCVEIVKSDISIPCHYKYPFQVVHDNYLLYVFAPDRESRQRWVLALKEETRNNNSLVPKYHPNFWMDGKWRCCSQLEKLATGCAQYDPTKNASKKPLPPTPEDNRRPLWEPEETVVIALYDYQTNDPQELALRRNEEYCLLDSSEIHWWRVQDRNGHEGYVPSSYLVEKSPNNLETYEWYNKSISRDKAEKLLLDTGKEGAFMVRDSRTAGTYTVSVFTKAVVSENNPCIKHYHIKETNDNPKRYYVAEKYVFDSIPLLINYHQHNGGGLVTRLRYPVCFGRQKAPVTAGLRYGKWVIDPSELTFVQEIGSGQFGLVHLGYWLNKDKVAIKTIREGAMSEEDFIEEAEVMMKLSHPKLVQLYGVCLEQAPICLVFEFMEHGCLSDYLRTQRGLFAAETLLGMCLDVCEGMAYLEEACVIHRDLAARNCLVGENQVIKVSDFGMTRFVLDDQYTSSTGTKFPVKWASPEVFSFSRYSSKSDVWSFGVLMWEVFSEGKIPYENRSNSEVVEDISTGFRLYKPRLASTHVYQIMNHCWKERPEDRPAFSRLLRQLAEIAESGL
Protocol: as §1

[10] = molecular target: T2, EGFR (Homo sapiens, UniProt P00533); test: NanoBRET in-cell target engagement, EGFR; assay type: binding; settings: HEK296T cells, 1 h incubation, average of duplicates
T2 construct: host or cells: HEK296T (so in the source)
Protocol: as §1

[11] = test system: primary DLBCL samples; test: Ex vivo model of diffuse large B-cell lymphoma (Pharmacoscopy, drug response score); assay type: cell-based, human; settings: 72 h, 4-point dose–response from 10 μM
[12] = test system: HBEC-5i cell model; test: In vitro blood–brain barrier permeability (translocation), HBEC-5i cell model; assay type: in vitro ADME, human; settings: Translocation 24 h, compound 15 μM
Protocol: as §3

Sequence of BLK (P51451 whole entry): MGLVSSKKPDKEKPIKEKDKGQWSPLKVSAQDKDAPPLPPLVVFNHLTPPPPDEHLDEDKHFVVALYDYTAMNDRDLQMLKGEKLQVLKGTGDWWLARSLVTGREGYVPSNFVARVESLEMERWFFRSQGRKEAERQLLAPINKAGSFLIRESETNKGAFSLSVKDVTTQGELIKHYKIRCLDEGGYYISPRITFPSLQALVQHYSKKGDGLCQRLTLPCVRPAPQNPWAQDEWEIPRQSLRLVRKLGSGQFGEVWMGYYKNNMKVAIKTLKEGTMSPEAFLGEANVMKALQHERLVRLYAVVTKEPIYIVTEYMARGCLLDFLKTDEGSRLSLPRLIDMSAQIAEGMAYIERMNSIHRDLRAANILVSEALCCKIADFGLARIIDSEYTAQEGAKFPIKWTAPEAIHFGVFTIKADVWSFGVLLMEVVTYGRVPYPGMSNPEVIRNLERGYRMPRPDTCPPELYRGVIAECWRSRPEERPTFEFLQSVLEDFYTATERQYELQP
T2 sequence (P00533 25-1210): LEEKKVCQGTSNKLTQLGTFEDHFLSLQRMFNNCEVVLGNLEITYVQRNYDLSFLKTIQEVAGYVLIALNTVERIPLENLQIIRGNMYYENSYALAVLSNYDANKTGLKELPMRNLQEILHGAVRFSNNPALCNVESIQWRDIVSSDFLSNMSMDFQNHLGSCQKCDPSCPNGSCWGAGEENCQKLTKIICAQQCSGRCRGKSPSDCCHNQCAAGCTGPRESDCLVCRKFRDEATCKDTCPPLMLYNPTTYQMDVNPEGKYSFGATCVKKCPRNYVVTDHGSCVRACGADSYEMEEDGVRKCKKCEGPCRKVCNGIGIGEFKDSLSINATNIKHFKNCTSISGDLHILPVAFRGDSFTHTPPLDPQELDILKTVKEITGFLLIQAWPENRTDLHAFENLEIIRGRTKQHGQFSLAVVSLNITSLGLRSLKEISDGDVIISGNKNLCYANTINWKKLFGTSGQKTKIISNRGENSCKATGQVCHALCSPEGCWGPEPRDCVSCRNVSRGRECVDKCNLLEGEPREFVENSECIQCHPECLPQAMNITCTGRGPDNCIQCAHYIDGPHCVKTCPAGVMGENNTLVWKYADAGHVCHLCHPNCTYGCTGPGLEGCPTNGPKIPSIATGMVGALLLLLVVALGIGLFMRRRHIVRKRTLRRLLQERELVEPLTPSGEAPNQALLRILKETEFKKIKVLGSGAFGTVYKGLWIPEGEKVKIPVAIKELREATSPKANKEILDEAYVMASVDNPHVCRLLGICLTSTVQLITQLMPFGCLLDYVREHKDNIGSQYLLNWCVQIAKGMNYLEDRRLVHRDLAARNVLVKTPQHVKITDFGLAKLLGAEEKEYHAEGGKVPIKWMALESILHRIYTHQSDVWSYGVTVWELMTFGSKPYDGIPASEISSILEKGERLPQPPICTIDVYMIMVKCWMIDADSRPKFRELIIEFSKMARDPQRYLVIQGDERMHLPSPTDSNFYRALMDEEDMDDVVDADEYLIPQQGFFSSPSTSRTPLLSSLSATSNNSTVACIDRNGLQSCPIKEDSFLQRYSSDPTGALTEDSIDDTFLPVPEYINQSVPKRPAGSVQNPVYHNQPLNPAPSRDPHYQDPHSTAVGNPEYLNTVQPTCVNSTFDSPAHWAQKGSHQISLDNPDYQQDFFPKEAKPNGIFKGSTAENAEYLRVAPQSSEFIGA
Sequence of BTK (Q06187 whole entry): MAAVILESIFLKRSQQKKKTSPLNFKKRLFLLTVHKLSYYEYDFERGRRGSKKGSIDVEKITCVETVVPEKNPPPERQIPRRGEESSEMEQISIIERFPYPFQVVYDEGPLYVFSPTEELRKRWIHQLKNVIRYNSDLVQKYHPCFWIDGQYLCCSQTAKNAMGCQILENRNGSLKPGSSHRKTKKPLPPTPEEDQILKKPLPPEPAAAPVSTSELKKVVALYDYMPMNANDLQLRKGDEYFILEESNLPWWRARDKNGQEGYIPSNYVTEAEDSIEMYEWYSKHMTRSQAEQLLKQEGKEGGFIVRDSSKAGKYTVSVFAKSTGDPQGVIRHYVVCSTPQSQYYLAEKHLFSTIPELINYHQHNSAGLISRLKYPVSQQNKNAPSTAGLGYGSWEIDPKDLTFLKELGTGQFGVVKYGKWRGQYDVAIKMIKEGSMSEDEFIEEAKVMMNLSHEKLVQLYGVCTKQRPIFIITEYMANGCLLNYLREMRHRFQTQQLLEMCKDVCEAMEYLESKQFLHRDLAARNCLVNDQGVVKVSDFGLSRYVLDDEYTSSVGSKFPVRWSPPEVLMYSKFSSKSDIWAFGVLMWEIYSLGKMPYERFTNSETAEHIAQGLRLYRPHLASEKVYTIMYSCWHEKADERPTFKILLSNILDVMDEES

C=CC(=O)Nc1cc(C)cc(-n2c(=O)ccc3cnc4ccc(-c5ccc(NS(C)(=O)=O)cc5)cc4c32)c1 [JS25]
selectivity for BTK relative to BLK [1]: 100 fold | IC50 ([1]; HEK296T cells, 1 h incubation, average of duplicates, read-out: IC50 (M), BLK): 2.6e-06 M | IC50 ([1]; NanoBRET value as given in Table S3, read-out: IC50, BLK): ~3e-06 M | IC50 [2]: 23400 ± 980 nM | IC50 [3]: 5.8 nM | IC50 [4]: 38400 ± 70 nM | IC50 [5]: 1950 nM | Metastasis volume, Brain, Average ([6]; 10 mg/kg): 1.13 mm³ | Metastasis volume, Liver, Average ([6]; 10 mg/kg): 27.34 mm³ | Metastasis volume, Lung, Average ([6]; 10 mg/kg): 26.04 mm³ | Metastasis volume, Spinal, Average ([6]; 10 mg/kg): 87.31 mm³ | Secondary tumour, Average ([6]; 10 mg/kg): 16.88 mm³ | Metastasis volume, Brain, single animals ([6]; 10 mg/kg): 0.92 mm³ and 0.98 mm³ and 2.33 mm³ and 0.15 mm³ and 1.27 mm³ | Metastasis volume, Liver, single animals ([6]; 10 mg/kg): 0.00 mm³ (2×) and 9.94 mm³ and 83.71 mm³ and 43.05 mm³ | Metastasis volume, Lung, single animals ([6]; 10 mg/kg): 0.00 mm³ (4×) and 130.18 mm³ | Metastasis volume, Spinal, single animals ([6]; 10 mg/kg): 18.31 mm³ and 109.42 mm³ and 122.01 mm³ and 88.70 mm³ and 98.09 mm³ | Secondary tumour, single animals ([6]; 10 mg/kg): 0.00 mm³ (4×) and 84.38 mm³ | reduction in percentage of metastases ([6]; 20 mg/kg i.p. every 2 days, n = 5/group): 70% | Metastasis volume, Brain, Average ([6]; 20 mg/kg): 0.26 mm³ | Metastasis volume, Liver, Average ([6]; 20 mg/kg): 1.34 mm³ | Metastasis volume, Lung, Average ([6]; 20 mg/kg): 0.00 mm³ | Metastasis volume, Spinal, Average ([6]; 20 mg/kg): 27.10 mm³ | Secondary tumour, Average ([6]; 20 mg/kg): 37.98 mm³ | Metastasis volume, Brain, single animals ([6]; 20 mg/kg): 0.44 mm³ and 0.03 mm³ and 0.82 mm³ and 0.00 mm³ (2×) | Metastasis volume, Liver, single animals ([6]; 20 mg/kg): 0.00 mm³ and 2.00 mm³ and 3.35 mm³ and 0.64 mm³ and 0.70 mm³ | Metastasis volume, Lung, single animals ([6]; 20 mg/kg): 0.00 mm³ | Metastasis volume, Spinal, single animals ([6]; 20 mg/kg): 36.97 mm³ and 12.59 mm³ and 70.62 mm³ and 14.65 mm³ and 0.69 mm³ | Secondary tumour, single animals ([6]; 20 mg/kg): 0.00 mm³ and 91.12 mm³ and 86.92 mm³ and 8.82 mm³ and 3.06 mm³ | reduction in secondary tumor formation ([6]; JS25 10 and 20 mg/kg i.p. every 2 days, n = 5/group): 71–88% | reduction in solid (subcutaneous) tumor size ([6]; JS25 10 and 20 mg/kg i.p. every 2 days, relative to control): 30–40% | IC50 [7]: 520 ± 20 nM | IC50 [8]: ~510 nM | selectivity for BTK relative to ITK [9]: 15 fold | IC50 ([9]; HEK296T cells, 1 h incubation, average of duplicates): 440 nM | selectivity (kinase/BTK), ITK ([9]; IC50 kinase/IC50 BTK): 15.4 | IC50 [10]: > 3000 nM | patients with off-target or nonspecific killing (DRS < 0) ([11]; 11 patients): ~36% | patients with “on-target” effect (DRS > 0) ([11]; JS25 11 patients, ibrutinib 10 patients): 64% | % Fluorescence, Basolateral side (permeability to the BBB) [12]: 28.5%
